Assay results published in patent US20240226115A1, “AXL INHIBITOR COMPOUNDS” (ARCUS BIOSCIENCES, INC., priority 2021, published 2024).
pIC50: −log10 of the molar value.

What was measured:
[1] = target: T1, recombinant human MER (Homo sapiens, UniProt Q12866); assay: HTRF KinEASE-TK biochemical potency, MER; details: 1 nM MER, 700 μM ATP
T1 construct: purchased Invitrogen
T1 sequence (Q12866 21-999): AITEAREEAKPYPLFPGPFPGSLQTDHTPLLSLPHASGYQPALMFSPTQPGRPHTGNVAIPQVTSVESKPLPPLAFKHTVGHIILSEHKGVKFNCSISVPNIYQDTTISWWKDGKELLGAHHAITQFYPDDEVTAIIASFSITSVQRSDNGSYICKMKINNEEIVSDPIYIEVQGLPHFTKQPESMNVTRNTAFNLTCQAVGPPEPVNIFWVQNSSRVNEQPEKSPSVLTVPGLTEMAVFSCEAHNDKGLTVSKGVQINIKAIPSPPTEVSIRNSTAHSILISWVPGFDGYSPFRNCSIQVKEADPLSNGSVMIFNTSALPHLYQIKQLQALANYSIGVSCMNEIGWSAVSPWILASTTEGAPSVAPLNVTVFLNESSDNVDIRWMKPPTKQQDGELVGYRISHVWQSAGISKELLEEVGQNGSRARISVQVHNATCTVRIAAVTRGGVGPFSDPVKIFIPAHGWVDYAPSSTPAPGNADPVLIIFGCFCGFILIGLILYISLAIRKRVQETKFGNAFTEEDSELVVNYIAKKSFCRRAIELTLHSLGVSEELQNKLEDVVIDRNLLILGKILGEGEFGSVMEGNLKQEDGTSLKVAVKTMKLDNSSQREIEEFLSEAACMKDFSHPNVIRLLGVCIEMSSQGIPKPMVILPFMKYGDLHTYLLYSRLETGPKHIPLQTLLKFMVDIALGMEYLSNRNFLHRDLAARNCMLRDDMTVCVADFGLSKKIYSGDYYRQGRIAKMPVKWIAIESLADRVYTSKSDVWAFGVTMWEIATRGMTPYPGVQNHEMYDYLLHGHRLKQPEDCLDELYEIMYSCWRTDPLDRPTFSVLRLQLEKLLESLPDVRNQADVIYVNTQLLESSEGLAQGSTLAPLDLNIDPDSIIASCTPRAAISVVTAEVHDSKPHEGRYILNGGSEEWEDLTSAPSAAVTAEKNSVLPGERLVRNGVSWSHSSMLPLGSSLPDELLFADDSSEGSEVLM
Method in brief: (§1)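 Enzyme preincubated with compound 1 h at RT; final 5 nM AXL or 1 nM TYRO3/MER, 800 nM TK substrate-biotin, 700 μM ATP, HEPES pH 7.4, MgCl2, 1% DMSO, 2 h at RT. HTRF 665/620 ratio read after streptavidin-XL665/cryptate antibody detection; percent activity relative to DMSO and pre-stopped controls.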

[2] = target: T2, Axl (Homo sapiens, UniProt P30530); assay: HTRF KinEASE-TK biochemical potency, AXL; parameters: purchased Invitrogen; details: 5 nM AXL, 700 μM ATP
T2 sequence (P30530 26-894): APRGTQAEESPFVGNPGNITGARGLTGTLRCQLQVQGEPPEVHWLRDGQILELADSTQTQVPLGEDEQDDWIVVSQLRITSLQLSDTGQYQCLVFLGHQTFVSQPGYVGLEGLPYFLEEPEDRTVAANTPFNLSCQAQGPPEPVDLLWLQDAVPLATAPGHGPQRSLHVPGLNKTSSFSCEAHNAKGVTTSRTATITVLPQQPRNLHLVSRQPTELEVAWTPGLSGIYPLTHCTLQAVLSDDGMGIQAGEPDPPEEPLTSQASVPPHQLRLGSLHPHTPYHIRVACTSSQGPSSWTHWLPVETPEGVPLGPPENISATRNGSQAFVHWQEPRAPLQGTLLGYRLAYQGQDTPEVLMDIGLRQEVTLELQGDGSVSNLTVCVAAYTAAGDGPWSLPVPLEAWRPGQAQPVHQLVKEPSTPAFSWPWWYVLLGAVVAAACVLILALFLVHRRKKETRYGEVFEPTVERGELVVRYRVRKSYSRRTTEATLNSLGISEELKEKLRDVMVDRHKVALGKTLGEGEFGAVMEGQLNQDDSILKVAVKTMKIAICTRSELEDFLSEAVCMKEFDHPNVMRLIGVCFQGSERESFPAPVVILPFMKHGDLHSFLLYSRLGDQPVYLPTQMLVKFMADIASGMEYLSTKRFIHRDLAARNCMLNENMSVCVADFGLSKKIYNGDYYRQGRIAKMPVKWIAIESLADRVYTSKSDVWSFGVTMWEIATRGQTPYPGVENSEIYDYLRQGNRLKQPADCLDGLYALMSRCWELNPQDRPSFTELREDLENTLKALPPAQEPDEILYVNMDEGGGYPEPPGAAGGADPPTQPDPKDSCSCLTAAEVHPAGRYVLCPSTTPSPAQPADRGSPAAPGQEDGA
Method in brief: as §1

With `C[C@@H]1CCCN1C1(C)CCc2ccc(-c3cnc4[nH]nc(-c5ccc6c(c5)OCCNC6=O)c4c3)cc2CC1` (stereo partly drawn) [Example 23, 8-(5-{7-Methyl-7-[(2R)-2-methylpyrrolidin-1-yl]-6,7,8,9-tetrahydro-5H-benzo[7]annulen-2-yl}-1H-pyrazolo[3,4-b]pyridin-3-yl)-2,3,4,5-tetrahydro-1,4-benzoxazepin-5-one] the pIC50 [1] was > 7.00 and the pIC50 [2] was > 7.00.

With `CC1(C)COc2cc(-c3n[nH]c4ncc(-c5ccc6c(c5)CCC(N5CCCC5)CC6)cc34)ccc2C(=O)N1` (stereo not drawn) [Example 35, 3,3-Dimethyl-8-{5-[7-(pyrrolidin-1-yl)-6,7,8,9-tetrahydro-5H-benzo[7]annulen-2-yl]-1H-pyrazolo[3,4-b]pyridin-3-yl}-2,3,4,5-tetrahydro-1,4-benzoxazepin-5-one] the pIC50 [1] was > 7.00 and the pIC50 [2] was > 7.00.

`O=C1NCCOc2cc(-c3n[nH]c4ncc(-c5ccc6c(c5)CNCC6)cc34)ccc21` [Example 55, 8-(5-(1,2,3,4-Tetrahydroisoquinolin-7-yl)-1H-pyrazolo[3,4-b]pyridin-3-yl)-3,4-dihydrobenzo[f][1,4]oxazepin-5(2H)-one] was tested, and the pIC50 [1] was 6.00 to 7.00 and the pIC50 [2] was > 7.00.
